Measurements reported in patent publication US20060241297A1, “Pyridinylamino-pyrimidine derivatives as protein kinase inhibitors” (Cyclacel Limited, priority 2003, published 2006).
Read-outs that look alike come from different tables or passages of the source.

Legend:
CDK2/cyclin E = CDK2/cyclin E (Homo sapiens, UniProt P24941); assay: Kinase assay, incorporation of radioactive phosphate from ATP; assay type: biochemical; conditions: 100 μM ATP, 30° C.; read-out: Kinase inhibition Ki CDK2/cyclin E
Method: (§1) The compounds from the examples above were investigated for their ability to inhibit the enzymatic activity of various protein kinases. This was achieved by measurement of incorporation of radioactive phosphate from ATP into appropriate polypeptide substrates. Recombinant protein kinases and kinase complexes were produced or obtained commercially. Assays were performed using 96-well plates and appropriate assay buffers (typically 25 mM β-glycerophosphate, 20 mM MOPS, 5 mM EGTA, 1 mM DTT, 1 mM […], pH 7.4), into which were added 2-4 μg of active enzyme with appropriate substrates. The reactions were initiated by addition of Mg/ATP mix (15 mM MgCl2+100 μM ATP with 30-50 kBq per well of [γ-^32P]-ATP) and mixtures incubated as required at 30° C. Reactions were stopped on ice, followed by filtration through p81 filterplates or GF/C filterplates (Whatman Polyfiltronics, Kent, UK). After washing 3 times with 75 mM aq orthophosphoric acid, plates were dried, scintillant added and incorporated radioactivity measured in a scintillation counter (TopCount, Packard Instruments, Pangboume, Berks, UK). Compounds for kinase assay were made up as 10 mM stocks in DMSO and diluted into 10% DMSO in assay buffer. Data was analysed using curve-fitting software (GraphPad Prism version 3.00 for Windows, GraphPad Software, San Diego Calif. USA) to determine IC50 values (concentration of test compound which inhibits kinase activity by 50%.).

CDK4/cyclin D1 = CDK4/cyclin D1 (Homo sapiens, UniProt P11802); assay: as above; assay type: biochemical; conditions: 100 μM ATP, 30° C.; read-out: Kinase inhibition Ki CDK4/cyclin D1
Method: as §1

A549 = assay: 72-h MTT cytotoxicity assay; assay type: cell-based; conditions: Homo sapiens
Method: (§2) The compounds from the examples above were subjected to a standard cellular proliferation assay using human tumour cell lines obtained from the ATCC (American Type Culture Collection, 10801 University Boulevard, Manessas, Va. 20110-2209, USA). Standard 72-h MTT (thiazolyl blue; 3-[4,5-dimethylthiazol-2-yl]-2,5-diphenyltetrazolium bromide) assays were performed. In short: cells were seeded into 96-well plates according to doubling time and incubated overnight at 37° C. Test compounds were made up in DMSO and a 1/3 dilution series prepared in 100 μL cell media, added to cells (in triplicates) and incubated for 72 ho at 37° C. MTT was made up as a stock of 5 mg/mL in cell media and filter-sterilised. Media was removed from cells followed by a wash with 200 μL PBS. MTT solution was then added at 20 μL per well and incubated in the dark at 37° C. for 4 h. MTT solution was removed and cells again washed with 200 μL PBS. MTT dye was solubilised with 200 μL per well of DMSO with agitation. Absorbance was read at 540 nm and data analysed using curve-fitting software (GraphPad Prism version 3.00 for Windows, GraphPad Software, San Diego Calif. USA) to determine IC50 values (concentration of test compound which inhibits cell growth by 50%). Various modifications and variations of the described aspects of the invention will be apparent to those skilled in the art without departing from the scope and spirit of the invention. Although the invention has been described in connection with specific preferred embodiments, it should be understood that the invention as claimed should not be unduly limited to such specific embodiments. Indeed, various modifications of the described modes of carrying out the invention which are obvious to those skilled in the relevant fields are intended to be within the scope of the following claims.

HT29 = assay: 72-h MTT cytotoxicity assay; assay type: cell-based; conditions: Homo sapiens, HT-29
Method: as §2

Saos-2 = assay: 72-h MTT cytotoxicity assay; assay type: cell-based; conditions: Homo sapiens
Method: as §2

[1] = tested on: transformed human cell lines (A549, HT29, Saos-2); assay: 72-h MTT cytotoxicity assay, average over cell lines; assay type: cell-based
Method: as §2

Aurora-A = molecular target: T1, Aurora-A (Homo sapiens, UniProt O14965); assay: Kinase assay, incorporation of radioactive phosphate from ATP; assay type: biochemical; conditions: 100 μM ATP, 30° C.; read-out: Kinase inhibition Ki Aurora-A
T1 sequence (O14965 1-403): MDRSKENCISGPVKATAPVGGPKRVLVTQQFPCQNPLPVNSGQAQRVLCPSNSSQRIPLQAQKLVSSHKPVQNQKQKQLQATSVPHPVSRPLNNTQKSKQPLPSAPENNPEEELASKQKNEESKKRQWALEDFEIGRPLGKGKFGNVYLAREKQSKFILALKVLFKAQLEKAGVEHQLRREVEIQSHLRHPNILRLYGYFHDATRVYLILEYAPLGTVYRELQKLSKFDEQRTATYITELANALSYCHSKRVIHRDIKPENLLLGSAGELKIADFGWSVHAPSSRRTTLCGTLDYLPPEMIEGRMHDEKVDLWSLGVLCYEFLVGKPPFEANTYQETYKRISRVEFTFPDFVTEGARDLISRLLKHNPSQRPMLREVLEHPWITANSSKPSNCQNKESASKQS
Method: as §1

CDK1/cyclin B = CDK1/cyclin B (Homo sapiens, UniProt P06493); assay: as above; assay type: biochemical; conditions: 100 μM ATP, 30° C.; read-out: Kinase inhibition Ki CDK1/cyclin B
Method: as §1

CDK2/cyclin A = CDK2/cyclin A (Homo sapiens, UniProt P24941); assay: as above; assay type: biochemical; conditions: 100 μM ATP, 30° C.; read-out: Kinase inhibition Ki CDK2/cyclin A
Method: as §1

CDK7/cyclin H = CDK7/cyclin H (Homo sapiens, UniProt P50613); assay: as above; assay type: biochemical; conditions: 100 μM ATP, 30° C.; read-out: Kinase inhibition Ki CDK7/cyclin H
Method: as §1

CDK9/cyclin T1 = CDK9/cyclin T1 (Homo sapiens, UniProt P50750); assay: as above; assay type: biochemical; conditions: 100 μM ATP, 30° C.; read-out: Kinase inhibition Ki CDK9/cyclin T1
Method: as §1

GSK3β = GSK3β (Homo sapiens, UniProt P49841); assay: as above; assay type: biochemical; conditions: 100 μM ATP, 30° C.; read-out: Kinase inhibition Ki GSK3β
Method: as §1

[2] = average of A549, HT29, Saos-2, read-out: 72-h MTT IC50 Average

Chain of CDK4/cyclin D1 (P11802 whole entry): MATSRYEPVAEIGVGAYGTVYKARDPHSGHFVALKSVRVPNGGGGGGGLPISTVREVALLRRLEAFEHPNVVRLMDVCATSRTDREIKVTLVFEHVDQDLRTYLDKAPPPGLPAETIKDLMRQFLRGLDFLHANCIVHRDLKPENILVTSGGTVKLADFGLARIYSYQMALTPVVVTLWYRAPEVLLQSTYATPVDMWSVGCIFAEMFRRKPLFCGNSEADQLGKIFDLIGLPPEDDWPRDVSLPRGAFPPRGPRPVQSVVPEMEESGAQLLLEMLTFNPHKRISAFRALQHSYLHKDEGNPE
Chain of CDK4/cyclin D1 (P24385 whole entry partner): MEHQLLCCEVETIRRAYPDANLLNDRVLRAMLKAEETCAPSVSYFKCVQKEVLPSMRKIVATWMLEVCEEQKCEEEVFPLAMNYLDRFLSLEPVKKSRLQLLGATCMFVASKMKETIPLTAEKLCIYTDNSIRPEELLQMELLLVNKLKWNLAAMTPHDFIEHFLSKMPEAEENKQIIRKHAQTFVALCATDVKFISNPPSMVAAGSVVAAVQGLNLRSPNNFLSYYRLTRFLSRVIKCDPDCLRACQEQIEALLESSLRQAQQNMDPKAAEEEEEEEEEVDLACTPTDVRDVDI
Chain of GSK3β (P49841 whole entry): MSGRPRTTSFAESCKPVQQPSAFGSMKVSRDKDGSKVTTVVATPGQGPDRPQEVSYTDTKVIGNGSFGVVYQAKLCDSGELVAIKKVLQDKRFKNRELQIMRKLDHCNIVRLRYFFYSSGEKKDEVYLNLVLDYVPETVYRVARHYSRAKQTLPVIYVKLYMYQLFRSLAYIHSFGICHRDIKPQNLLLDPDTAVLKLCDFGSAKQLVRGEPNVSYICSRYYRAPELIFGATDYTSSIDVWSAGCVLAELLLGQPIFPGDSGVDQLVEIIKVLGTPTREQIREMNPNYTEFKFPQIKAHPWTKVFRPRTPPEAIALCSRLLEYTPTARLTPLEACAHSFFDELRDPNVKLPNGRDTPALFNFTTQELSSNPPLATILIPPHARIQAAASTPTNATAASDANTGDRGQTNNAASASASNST
Chain of CDK7/cyclin H (P50613 whole entry): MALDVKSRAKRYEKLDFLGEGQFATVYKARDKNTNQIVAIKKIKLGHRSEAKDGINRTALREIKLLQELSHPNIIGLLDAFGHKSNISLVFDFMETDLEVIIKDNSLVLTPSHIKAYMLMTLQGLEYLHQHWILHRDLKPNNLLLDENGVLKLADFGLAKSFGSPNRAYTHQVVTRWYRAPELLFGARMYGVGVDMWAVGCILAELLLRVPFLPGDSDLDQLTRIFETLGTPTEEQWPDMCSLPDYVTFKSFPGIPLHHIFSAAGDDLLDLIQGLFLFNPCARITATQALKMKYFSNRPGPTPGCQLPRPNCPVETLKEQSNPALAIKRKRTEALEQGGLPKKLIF
Chain of CDK7/cyclin H (P51946 whole entry partner): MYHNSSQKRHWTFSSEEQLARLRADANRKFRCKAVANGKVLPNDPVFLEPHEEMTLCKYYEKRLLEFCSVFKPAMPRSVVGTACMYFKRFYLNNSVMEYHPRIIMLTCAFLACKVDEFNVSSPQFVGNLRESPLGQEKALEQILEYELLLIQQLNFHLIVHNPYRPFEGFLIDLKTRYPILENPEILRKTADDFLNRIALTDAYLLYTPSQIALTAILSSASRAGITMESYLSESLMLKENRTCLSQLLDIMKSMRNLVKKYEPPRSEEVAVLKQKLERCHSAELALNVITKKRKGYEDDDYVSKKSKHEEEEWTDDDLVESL
Chain of CDK9/cyclin T1 (P50750 whole entry): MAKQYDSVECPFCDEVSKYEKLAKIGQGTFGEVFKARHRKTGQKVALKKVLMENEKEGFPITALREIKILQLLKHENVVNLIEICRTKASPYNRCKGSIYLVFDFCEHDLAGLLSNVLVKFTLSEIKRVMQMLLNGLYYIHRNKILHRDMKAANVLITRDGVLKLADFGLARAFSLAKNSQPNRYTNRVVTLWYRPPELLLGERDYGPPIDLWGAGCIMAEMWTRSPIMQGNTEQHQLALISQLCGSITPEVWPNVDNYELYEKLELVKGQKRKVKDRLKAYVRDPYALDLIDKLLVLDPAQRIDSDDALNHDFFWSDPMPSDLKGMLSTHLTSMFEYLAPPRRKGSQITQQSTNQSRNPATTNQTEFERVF
Chain of CDK9/cyclin T1 (O60563 whole entry partner): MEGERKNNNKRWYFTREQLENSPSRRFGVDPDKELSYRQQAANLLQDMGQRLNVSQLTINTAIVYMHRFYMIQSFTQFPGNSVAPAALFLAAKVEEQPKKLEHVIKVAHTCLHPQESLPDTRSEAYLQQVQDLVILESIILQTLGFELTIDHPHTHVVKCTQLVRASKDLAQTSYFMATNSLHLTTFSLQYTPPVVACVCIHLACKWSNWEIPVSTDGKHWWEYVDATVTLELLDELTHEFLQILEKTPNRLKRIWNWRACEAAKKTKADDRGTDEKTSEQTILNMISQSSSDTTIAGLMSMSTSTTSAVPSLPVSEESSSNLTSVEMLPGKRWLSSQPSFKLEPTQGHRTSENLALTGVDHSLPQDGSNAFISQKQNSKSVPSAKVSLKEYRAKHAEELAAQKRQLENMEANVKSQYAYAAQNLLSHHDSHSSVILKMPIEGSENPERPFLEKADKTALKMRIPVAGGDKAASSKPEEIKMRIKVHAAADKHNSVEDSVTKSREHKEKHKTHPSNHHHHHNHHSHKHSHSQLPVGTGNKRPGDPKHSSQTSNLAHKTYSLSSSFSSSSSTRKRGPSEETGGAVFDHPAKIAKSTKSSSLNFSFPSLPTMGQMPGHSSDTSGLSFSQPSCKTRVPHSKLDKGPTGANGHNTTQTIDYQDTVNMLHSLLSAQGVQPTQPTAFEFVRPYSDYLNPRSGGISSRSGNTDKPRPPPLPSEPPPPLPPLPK
Chain of CDK1/cyclin B (P06493 whole entry): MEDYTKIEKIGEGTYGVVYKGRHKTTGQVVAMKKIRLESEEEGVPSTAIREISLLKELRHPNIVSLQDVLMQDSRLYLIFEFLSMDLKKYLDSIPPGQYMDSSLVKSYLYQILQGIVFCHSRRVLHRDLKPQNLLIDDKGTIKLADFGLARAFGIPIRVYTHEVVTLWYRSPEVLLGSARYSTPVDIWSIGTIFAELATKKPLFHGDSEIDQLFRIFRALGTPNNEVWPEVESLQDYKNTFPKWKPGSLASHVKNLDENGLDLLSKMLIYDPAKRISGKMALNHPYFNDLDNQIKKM
Chain of CDK1/cyclin B (P14635 whole entry partner): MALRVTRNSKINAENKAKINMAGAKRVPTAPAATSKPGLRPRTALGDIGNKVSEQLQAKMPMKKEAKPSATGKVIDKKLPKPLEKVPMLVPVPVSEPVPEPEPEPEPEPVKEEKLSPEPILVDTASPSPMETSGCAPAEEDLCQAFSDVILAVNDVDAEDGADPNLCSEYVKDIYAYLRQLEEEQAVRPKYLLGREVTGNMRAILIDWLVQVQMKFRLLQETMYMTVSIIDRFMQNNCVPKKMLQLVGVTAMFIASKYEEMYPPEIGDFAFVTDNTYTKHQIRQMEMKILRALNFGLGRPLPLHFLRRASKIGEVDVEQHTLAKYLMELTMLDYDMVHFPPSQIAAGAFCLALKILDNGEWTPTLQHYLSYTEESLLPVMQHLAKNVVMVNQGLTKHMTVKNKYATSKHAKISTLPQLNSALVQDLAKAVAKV

Compound	Ki (CDK2/cyclin E) [µM]	Ki (CDK4/cyclin D1) [µM]	IC50 (A549) [µM]	IC50 (HT29) [µM]	IC50 (Saos-2) [µM]	IC50 [1, 2] [µM]	melting point [°C]	Ki (Aurora-A) [µM]	Ki (CDK1/cyclin B) [µM]	Ki (CDK2/cyclin A) [µM]	Ki (CDK7/cyclin H) [µM]	Ki (CDK9/cyclin T1) [µM]	Ki (GSK3β) [µM]	IC50 ([1]; in vitro, read-out: IC50 value (average) against one or more transformed human cell lines, 72-h MTT cytotoxicity assay) [µM]
Cc1nc(C)c(-c2ccnc(Nc3ccc[n+](C)c3)n2)s1 [Compound 2, 3-[4-(2,4-Dimethyl-thiazol-5-yl)-pyrimidin-2-ylamino]-1-methyl-pyridinium]	1.5	4.1	11.6	86	48.5	48.7 ± 37.2	297 to 300	–	–	–	–	–	–	–
Cc1nc(C)c(-c2ccnc(Nc3ccc(Cl)nc3)n2)s1 [Compound 3, (6-Chloro-pyridin-3-yl)-[4-(2,4-dimethyl-thiazol-5-yl)-pyrimidin-2-yl]-amine]	0.35	0.66	9.8	2.8	4.4	5.7 ± 3.7	–	0.86	4.2	1.7	7.2	0.97	0.11	< 10
